What was measured:
DDR1 [1] = biological target: T1, DDR1 (Homo sapiens, UniProt Q08345); assay: DDR1 LanthaScreen Europium Kinase Binding assay; details: binding affinity; IC50 converted in Ki using Cheng-Prusoff; read-out: Ki DDR1
Method: (§1) DDR1 and DDR2 binding assays were performed using Life Technologies LanthaScreen™ Europium Kinase Binding assay. The compounds were incubated with 5 nM DDR1 (Carna Biosciences) or 5 nM DDR2 (Life Technologies) for 1 hour at room temperature in white 384-well OptiPlate (PerkinElmer), containing 20 nM or 10 nM Kinase Tracer 178 respectively and 2 nM Europium labelled anti-GST antibody (Life Technologies) in assay buffer (50 mM HEPES pH 7.5, 10 mM MgCI2, 1 mM EGTA and 0.01% BRIJ35). The ratio of fluorescence emission 665 nm/615 nm after excitation at 340 nm was obtained using the Tecan Spark 20M plate reader. IC50 values were determined in GraphPad Prism 7.0 software, using 4 parameter model: log(inhibitor) vs. response. IC50 values were converted in Ki using the Cheng-Prusoff equation (Ki=IC50/(1+[Tracer]/Kd).

DDR2 = biological target: T2, DDR2 (Homo sapiens, UniProt Q16832); assay: DDR2 LanthaScreen Europium Kinase Binding assay; details: binding affinity; IC50 converted in Ki using Cheng-Prusoff; read-out: Ki DDR2
T2 sequence (Q16832 22-855): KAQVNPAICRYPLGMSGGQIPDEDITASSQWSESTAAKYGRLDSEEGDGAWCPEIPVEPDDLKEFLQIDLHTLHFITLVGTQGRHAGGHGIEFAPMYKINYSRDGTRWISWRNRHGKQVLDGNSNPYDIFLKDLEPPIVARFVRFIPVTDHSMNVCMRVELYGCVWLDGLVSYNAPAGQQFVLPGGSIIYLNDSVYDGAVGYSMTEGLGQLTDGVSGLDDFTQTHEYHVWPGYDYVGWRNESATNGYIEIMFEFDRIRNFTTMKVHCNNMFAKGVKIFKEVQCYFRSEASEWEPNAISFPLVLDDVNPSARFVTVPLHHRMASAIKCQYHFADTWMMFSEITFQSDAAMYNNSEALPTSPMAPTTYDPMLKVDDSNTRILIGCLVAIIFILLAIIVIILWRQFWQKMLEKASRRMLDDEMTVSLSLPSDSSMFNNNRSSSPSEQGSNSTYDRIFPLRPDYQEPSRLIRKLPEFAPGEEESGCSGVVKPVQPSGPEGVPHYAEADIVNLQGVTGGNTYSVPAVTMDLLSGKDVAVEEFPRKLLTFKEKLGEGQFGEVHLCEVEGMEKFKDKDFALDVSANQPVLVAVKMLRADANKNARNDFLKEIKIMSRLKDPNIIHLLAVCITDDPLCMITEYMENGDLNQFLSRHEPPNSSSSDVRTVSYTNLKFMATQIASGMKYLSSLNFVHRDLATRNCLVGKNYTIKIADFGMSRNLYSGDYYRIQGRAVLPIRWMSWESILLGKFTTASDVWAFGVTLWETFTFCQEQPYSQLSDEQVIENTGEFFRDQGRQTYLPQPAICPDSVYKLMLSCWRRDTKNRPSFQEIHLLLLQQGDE
Method: as §1

DDR1 [2] = biological target: T1, DDR1; assay: DDR1 cell based assay (PathHunter U2OS DDR1, collagen II stimulation); details: U2OS-DDR1 cells, bovine Type II Collagen stimulation
Method: The inhibition of DDR1 receptor activation by compounds was evaluated by PathHunter® U2OS DDR1 assay (Eurofins DiscoverX), according to the manufacturer's instructions. Briefly, U2OS-DDR1 cells were seeded in white 384-well plates at a density of 5000 cells/well and incubated for 2 hours at 37° C. and 5% CO2. Cells were then treated with compounds at different concentrations and incubated for 30 minutes, before stimulation with bovine Type II Collagen 20 μg/ml and incubation overnight at 37° C. and 5% CO2. PathHunter Detection Reagents were prepared according to the protocol provided by DiscoverX and 20 μl/well of this mix were added to each well. After incubating the plates for 1 hour at room temperature in the dark, luminescence signal was acquired with a plate reader. Raw data were normalized to vehicle control (0% for normalization) and positive control (100% for normalization; cells treated with 20 μg/ml collagen II) and IC50 parameters were calculated in GraphPad Prism 8.0 software, using sigmoidal dose-response curve fitting with variable slope.

T1 sequence (Q08345 19-913): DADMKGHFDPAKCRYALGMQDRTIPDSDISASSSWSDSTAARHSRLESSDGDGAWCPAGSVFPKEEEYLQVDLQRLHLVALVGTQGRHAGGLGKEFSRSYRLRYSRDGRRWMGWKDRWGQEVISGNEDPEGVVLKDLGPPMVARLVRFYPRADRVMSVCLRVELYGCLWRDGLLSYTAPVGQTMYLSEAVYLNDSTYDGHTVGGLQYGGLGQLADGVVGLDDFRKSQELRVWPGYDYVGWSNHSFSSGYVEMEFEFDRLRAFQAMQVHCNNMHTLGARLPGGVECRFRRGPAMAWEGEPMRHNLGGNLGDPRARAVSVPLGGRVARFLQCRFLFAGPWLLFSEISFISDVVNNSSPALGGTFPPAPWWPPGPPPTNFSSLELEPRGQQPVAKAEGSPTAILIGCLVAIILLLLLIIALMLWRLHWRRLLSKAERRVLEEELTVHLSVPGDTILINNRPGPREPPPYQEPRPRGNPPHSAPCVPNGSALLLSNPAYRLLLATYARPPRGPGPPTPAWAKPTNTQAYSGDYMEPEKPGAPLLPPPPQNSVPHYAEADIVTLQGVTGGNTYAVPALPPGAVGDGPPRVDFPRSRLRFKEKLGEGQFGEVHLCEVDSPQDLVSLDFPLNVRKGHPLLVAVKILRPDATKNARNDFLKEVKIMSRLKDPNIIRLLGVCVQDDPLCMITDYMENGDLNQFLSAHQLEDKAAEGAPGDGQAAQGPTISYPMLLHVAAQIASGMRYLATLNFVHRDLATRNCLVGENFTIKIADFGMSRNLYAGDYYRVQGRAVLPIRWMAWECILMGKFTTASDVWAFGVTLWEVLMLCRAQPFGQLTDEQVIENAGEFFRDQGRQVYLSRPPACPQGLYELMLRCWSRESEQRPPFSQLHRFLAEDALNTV

Row | Structure (SMILES) | Ki (DDR1 [1]) [nM] | Ki (DDR2) [nM] | IC50 (DDR1 [2]) [nM]
1 | O=C(Nc1cc(F)cc(OC(F)(F)F)c1)c1ccc2c(c1)N(Cc1cnc3ccccn13)CC2 [Example 56, N-(3-fluoro-5-(trifluoromethoxy)phenyl)-1-(imidazo[1,2-a]pyridin-3-ylmethyl)indoline-6-carboxamide] | < 25 | < 25 | 25 to 50
2 | O=C(Nc1cccc(C(F)(F)F)c1)c1ccc2c(c1)N(Cc1cnc3ccccn13)CC2 [Example 57, 1-(imidazo[1,2-a]pyridin-3-ylmethyl)-N-(3-(trifluoromethyl)phenyl)indoline-6-carboxamide] | 25 to 50 | 50 to 80 | 25 to 50
3 | CC(C)(c1cc(NC(=O)c2ccc3c(c2)N(Cc2cnc4ccccn24)CC3)no1)C(F)(F)F [Example 58, 1-(imidazo[1,2-a]pyridin-3-ylmethyl)-N-(5-(1,1,1-trifluoro-2-methylpropan-2-yl)isoxazol-3-yl)indoline-6-carboxamide] | 25 to 50 | < 25 | < 25
4 | O=C(Nc1cccc(C(F)(F)F)c1)c1ccc2c(c1)N(Cc1ccc3[nH]cnc3c1)CC2 [Example 60, 1-((1H-benzo[d]imidazol-5-yl)methyl)-N-(3-(trifluoromethyl)phenyl)indoline-6-carboxamide] | < 25 | 50 to 80 | 50 to 80
5 | O=C(Nc1cccc(OC(F)(F)F)c1)c1ccc2c(c1)N(Cc1ccc3[nH]cnc3c1)CC2 [Example 61, 1-((1H-benzo[d]imidazol-5-yl)methyl)-N-(3-(trifluoromethoxy)phenyl)indoline-6-carboxamide] | 25 to 50 | 25 to 50 | 50 to 80
6 | O=C(Nc1cc(F)cc(C(F)(F)F)c1)c1ccc2c(c1)N(Cc1ccc3[nH]cnc3c1)CC2 [Example 62, 1-((1H-benzo[d]imidazol-5-yl)methyl)-N-(3-fluoro-5-(trifluoromethyl)phenyl)indoline-6-carboxamide] | 25 to 50 | 50 to 80 | 50 to 80
7 | O=C(Nc1cccc(C(F)(F)F)c1)c1ccc2c(c1)N(Cc1cnc3ccnn3c1)CC2 [Example 63, 1-(pyrazolo[1,5-a]pyrimidin-6-ylmethyl)-N-(3-(trifluoromethyl)phenyl)indoline-6-carboxamide] | < 25 | < 25 | 50 to 80
8 | CN1CCN(Cc2ccc(NC(=O)c3ccc4c(c3)N(Cc3cnc5ccnn5c3)CC4)cc2C(F)(F)F)CC1 [Example 76, N-(4-((4-methylpiperazin-1-yl)methyl)-3-(trifluoromethyl)phenyl)-1-(pyrazolo[1,5-a]pyrimidin-6-ylmethyl)indoline-6-carboxamide] | < 25 | < 25 | < 25
9 | CN1CCN(Cc2ccc(NC(=O)c3ccc4c(c3)N(Cc3cnc5c(c3)CCN5)CC4)cc2C(F)(F)F)CC1 [Example 77, 1-((2,3-dihydro-1H-pyrrolo[2,3-b]pyridin-5-yl)methyl)-N-(4-((4-methylpiperazin-1-yl)methyl)-3-(trifluoromethyl)phenyl)indoline-6-carboxamide] | < 25 | 25 to 50 | < 25
10 | CC(C)(C)c1cc(NC(=O)c2ccc3c(c2)N(Cc2cnc4[nH]ncc4c2)CC3)on1 [Example 78, 1-((1H-pyrazolo[3,4-b]pyridin-5-yl)methyl)-N-(3-(tert-butyl)isoxazol-5-yl)indoline-6-carboxamide] | < 25 | < 25 | < 25
11 | CC(C)(C)c1cc(NC(=O)c2ccc3c(c2)N(Cc2cnc4cnccn24)CC3)on1 [Example 79, N-(3-(tert-butyl)isoxazol-5-yl)-1-(imidazo[1,2-a]pyrazin-3-ylmethyl)indoline-6-carboxamide] | < 25 | < 25 | 50 to 80

Second part, the compound after the results:

Row | Ki (DDR1 [1]) [nM] | Ki (DDR2) [nM] | IC50 (DDR1 [2]) [nM] | Structure (SMILES)
12 | < 25 | < 25 | < 25 | Cc1n[nH]c2ncc(CN3CCc4ccc(C(=O)Nc5cc(CN6CCCC6)cc(C(F)(F)F)c5)cc43)cc12 [Example 66, 1-((3-methyl-1H-pyrazolo[3,4-b]pyridin-5-yl)methyl)-N-(3-(pyrrolidin-1-ylmethyl)-5-(trifluoromethyl)phenyl)indoline-6-carboxamide]
13 | < 25 | < 25 | < 25 | Cc1n[nH]c2ncc(CN3CCc4ccc(C(=O)Nc5cc(C(C)(C)C)on5)cc43)cc12 [Example 67, N-(5-(tert-butyl)isoxazol-3-yl)-1-((3-methyl-1H-pyrazolo[3,4-b]pyridin-5-yl)methyl)indoline-6-carboxamide]
14 | < 25 | < 25 | < 25 | Cc1n[nH]c2ncc(CN3CCc4ccc(C(=O)Nc5cc(CN6CCN(C)CC6)cc(C(F)(F)F)c5)cc43)cc12 [Example 68, 1-((3-methyl-1H-pyrazolo[3,4-b]pyridin-5-yl)methyl)-N-(3-((4-methylpiperazin-1-yl)methyl)-5-(trifluoromethyl)phenyl)indoline-6-carboxamide]
15 | < 25 | < 25 | 25 to 50 | Cc1n[nH]c2ncc(CN3CCc4ccc(C(=O)Nc5ccc(CN6CCCC6)c(C(F)(F)F)c5)cc43)cc12 [Example 70, 1-((3-methyl-1H-pyrazolo[3,4-b]pyridin-5-yl)methyl)-N-(4-(pyrrolidin-1-ylmethyl)-3-(trifluoromethyl)phenyl)indoline-6-carboxamide]
16 | < 25 | < 25 | < 25 | Cc1n[nH]c2ncc(CN3CCc4ccc(C(=O)Nc5cncc(C(F)(F)F)c5)cc43)cc12 [Example 71, 1-((3-methyl-1H-pyrazolo[3,4-b]pyridin-5-yl)methyl)-N-(5-(trifluoromethyl)pyridin-3-yl)indoline-6-carboxamide]
17 | < 25 | < 25 | < 25 | Cc1n[nH]c2ncc(CN3CCc4ccc(C(=O)Nc5cc(CN6CC[C@@H](N(C)C)C6)cc(C(F)(F)F)c5)cc43)cc12 [Example 72, (R)-N-(3-((3-(dimethylamino)pyrrolidin-1-yl)methyl)-5-(trifluoromethyl)phenyl)-1-((3-methyl-1H-pyrazolo[3,4-b]pyridin-5-yl)methyl)indoline-6-carboxamide]
18 | < 25 | < 25 | < 25 | Cc1n[nH]c2ncc(CN3CCc4ccc(C(=O)Nc5cc(C(=O)NCCN(C)C)cc(C(F)(F)F)c5)cc43)cc12 [Example 73, N-(3-((2-(dimethylamino)ethyl)carbamoyl)-5-(trifluoromethyl)phenyl)-1-((3-methyl-1H-pyrazolo[3,4-b]pyridin-5-yl)methyl)indoline-6-carboxamide]
19 | < 25 | < 25 | < 25 | Cc1n[nH]c2ncc(CN3CCc4ccc(C(=O)Nc5cc(C(=O)N6CCN(C)CC6)cc(C(F)(F)F)c5)cc43)cc12 [Example 74, 1-((3-methyl-1H-pyrazolo[3,4-b]pyridin-5-yl)methyl)-N-(3-(4-methylpiperazine-1-carbonyl)-5-(trifluoromethyl)phenyl)indoline-6-carboxamide]
20 | < 25 | < 25 | < 25 | Cc1n[nH]c2ncc(CN3CCc4ccc(C(=O)Nc5cc(CN6CCN(C)CC6)nc(C(F)(F)F)c5)cc43)cc12 [Example 81, 1-((3-methyl-1H-pyrazolo[3,4-b]pyridin-5-yl)methyl)-N-(2-((4-methylpiperazin-1-yl)methyl)-6-(trifluoromethyl)pyridin-4-yl)indoline-6-carboxamide]

Reference: US20240217967A1, “INDOLINE DERIVATIVES AS DDRS INHIBITORS” (CHIESI FARMACEUTICI S.P.A., priority 2021, published 2024)
